Source: ChEMBL document CHEMBL5727068, “Inhibitors of PTP4A3 for the treatment of cancer” (2019)

Target: Protein tyrosine phosphatase type IVA 3 (Homo sapiens, UniProt O75365)
Assay: In Vitro Biochemical Evaluation: The in vitro biochemical evaluation of all compounds was carried out using recombinant human PTP4A3, overexpressed as a His6-tag fusion protein in E. coli and purified on a metal affinity column. Assays were performed using 6,8-difluoro-4-methylumbelliferyl phosphate (DiFMUP) as an artificial substrate at 25° C. for 30 min in 40 mM Tris-HCl (pH 7.0), 75 mM NaCl, 2 mM EDTA, and 4 mM DTT buffer. […] The fluorescence was measured using a SpectraMax M5 plate reader at 358 nm excitation and 455 nm emission. Fluorescence values were used to calculate the percent inhibition of enzyme activity relative to maximal activity, PTP4A3 in the absence of inhibitor, and maximal inhibition, PTP4A3 in the presence of 2 mM Na3VO4.

Protein tyrosine phosphatase type IVA 3, sequence (O75365 whole entry, the tested form may be a part): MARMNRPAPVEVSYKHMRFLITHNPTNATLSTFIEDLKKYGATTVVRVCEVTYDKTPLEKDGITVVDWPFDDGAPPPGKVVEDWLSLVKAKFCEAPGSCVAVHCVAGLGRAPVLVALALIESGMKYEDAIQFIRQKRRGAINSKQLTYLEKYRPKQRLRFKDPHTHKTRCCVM

IC50: > 250 µM
SMILES: O=c1[nH]c(=O)c2cc(-c3ccccc3)sc2[nH]1
